Results on 18 compounds are retold here after patent US5434256A, “Diamine platinum complexes as antitumor agents” (priority 1994, dated 1995).

The nature of series [1]: Renal and hematological toxicity, single i.p. dose (Table 8). Conditions: for BUN d.5: blood urea nitrogen, saline control 20.9; for Body Wt. on d.5: mean, S.D. less than 20%.
For a further series, the system named is A2780 cells. Briefly: Modified MTT cytotoxicity assay, human ovarian A2780 (Example 2, Table 3). The format is cell-based. Conditions: continuous exposure (5 days in table footnote; 7 days in text). (In general: Formazan colour is commonly taken as a measure of viable cells.)
The subject of a further series is M5076 Tumor Model. Briefly: In vivo antitumor activity against M5076 tumor model (Example 3, Table 4). Details: species or system BDF1 mice; TGD (Tumor Growth Delay): unit not given beside the values. Conditions: M5076 s.c., BDF1 mice, i.p. days 7, 14, 21, 28; for TGD (Tumor Growth Delay): at optimal dose/MTD. How it is done:
(§1) Each of the platinum complexes was evaluated in vivo against L1210/0, L1210/DDP, L1210/DACH and M5076 cells at several dose levels. […] The data at optimal doses are reproduced in Tables 4-7 along with data for the cyclobutanedicarboxylato, aquasulfato, methylmalonato and tartronato analogs (compounds 1-4 in Table 1).
BDF1 mice inoculated s.c. with 10' M5076 cells on day 0 and drug
administered i.p on days 7, 14, 21, and 28. MTD = Maximum Tolerated Dose
(mg/kg/injection), TGD = Tumor Growth Delay

The test system of a further series is Murine Leukemia L1210/0. Briefly: In vivo antitumor activity against murine leukemia L1210/0 (Example 3, Table 5). Conditions: L1210/0 i.p., BDF1 mice, drug i.p. days 1, 5, 9; for % T/C (mean survival time of treated/mean survival time of control) × 100: at optimal dose/MTD; for long term survivors/no. tested: figures in parenthesis. Also on record: species or system BDF1 mice. How it is done:
as §1
BDF1 mice inoculated i.p. with 10^5 L1210 Leukemiacells on day 0 and
(§2) drug administered i.p. on days 1, 5, and 9. MTD = Maximum Tolerated Dose
(§3) (mg/kg/injection), % T/C = (mean survival time of treated/mean survival
time of control) × 100. Figures in parenthesis indicate long term

The test system of a further series is Murine Leukemia 1210/DDP. Briefly: In vivo antitumor activity against murine leukemia L1210/DDP (Example 3, Table 7). Details: species or system BDF1 mice. How it is done:
as §1
(§4) BDF1 mice inoculated i.p. with 10^5 L1210 Leukemia cells on day 0 and
drug administed i.p. on days 1, 5, and 9. MTD = Maximum Tolerated Dose
as §3
(§5) time of control) × 100. Figures in parenthesis indicated long term

Series [2] relates to Murine Leukemia L1210/DACH. Briefly: In vivo antitumor activity against murine leukemia L1210/DACH (Example 3, Table 6). Conditions: for MTD (Maximum Tolerated Dose) / % T/C (mean survival time of treated/mean survival time of control) × 100 / long term survivors/no. tested: L1210/DACH i.p., BDF1 mice, drug i.p. days 1, 5, 9; for % T/C (mean survival time of treated/mean survival time of control) × 100: at optimal dose/MTD; for long term survivors/no. tested: figures in parenthesis. Also on record: species or system BDF1 mice. How it is done: as §1, §4, §2, §3, §5

For series [3], the system named is L1210/0 cells. Put plainly: Modified MTT cytotoxicity assay, murine leukemia L1210/0 (Example 2, Table 3). The format is cell-based. Conditions: L1210/0; MTT, continuous exposure 5 days.
Procedure: (§6) Cytotoxicity was determined by a modified MTT assay. Briefly, the compounds were dissolved in normal saline and sterilized through 0.22 μm disc filters. […] Aliquots (20 μl ) of this, and serially diluted drug solutions, and of complete media (80 μl) were pipetted in triplicate into 96-well microtiler plates immediately before addition of cells. Cells in exponential phase of growth were trypsinized for 3 min, where necessary to dislodge adherent 2780 cells, collected and counted by Coulter counter (Coulter Electronics, Hialeah, Fla.). After diluting the L1210/0 (2,000/ml) and A2780 (5,000/ml) cells to appropriate concentrations, 100 μl aliquots of these cell suspensions were added to each of the wells. […] After a 3 hour incubation, the medium was removed and replaced by 50 μl of 100% DMSO to dissolve MTT formazan crystals. Plates were then agitated on a plate shaker for 5 min, and absorbances were measured at 570 nm with a multiwell scanning spectrophotometer (Dynatech MR600, Chantilly, Va.).
A further series has as its system L1210/DDP cells. Put plainly: MTT cytotoxicity, cisplatin-resistant L1210/DDP (Example 5, Table 10). Conditions: 72 hr (3 days) continuous exposure. The format is cell-based, murine.
For the next series, the system named is L1210/DACH cells. Put plainly: MTT cytotoxicity, tetraplatin-resistant L1210/DACH (Example 5, Table 10). It is filed as cell-based, murine. Conditions: 72 hr (3 days) continuous exposure.
For series [4], the system named is L1210/0 cells. Put plainly: MTT cytotoxicity, L1210/0 (Example 5, Table 10). Conditions: 72 hr (3 days) continuous exposure. The format is cell-based, murine.
[5] abbreviates: single i.p. dose (mg/kg): 1,4-DACH-Pt^II CBDCA 300, 1,4-DACH-Pt^IV Cl4 8.0, Tetraplatin 8.0, Cis-platin 12.0, Carboplatin 150.

Procedure for A2780 cells: as §6

On to `N.N.O=C([O-])C1(C(=O)[O-])CCC1.[Pt+2]` [Carboplatin], for which, in series [1] (setting [5]), the “BUN d.5” value is 15.8 mg %, the “Survivors on d.14” value is on record as 0/5 and the “Body Wt. on d.5” value was 79 % on control. Moreover, the “myelotoxicity / myelosuppression (in words)” value in series [1] (single i.p. dose, leucopenia) is given as “myelosuppressive”.
The IC50 is the concentration that inhibits the measured activity by half. For the compound `NC1CCC(N)CC1.O.O=C([O-])C1(C(=O)[O-])CCC1.[Pt+2]` [Compound 1, Cis-1,4-diaminocyclohexane-1,1-cyclobutanedicarboxylato-platinum(II).H2 O], the IC50 in the series with A2780 cells turned out to be 0.43 µM. Also, in the series with M5076 Tumor Model, the “MTD (Maximum Tolerated Dose)” value came to 200 mg/kg/injection and the “TGD (Tumor Growth Delay)” value came out at 42.3. In series [1] (setting [5]), the “BUN d.5” value is on record as 18.0 mg % and the “Body Wt. on d.5” value is on record as 99 % on control. Moreover, in the series with Murine Leukemia L1210/0, the “MTD (Maximum Tolerated Dose)” value is reported as 200 mg/kg/injection and the “% T/C (mean survival time of treated/mean survival time of control) × 100” value is given as 195%. For the same compound, in the series on Murine Leukemia 1210/DDP (L1210/DDP), the “antitumor activity in vivo against L1210/DDP (in words)” value is “inactive”. Further, in [2], the “MTD (Maximum Tolerated Dose)” value is reported as 200 mg/kg/injection, the “% T/C (mean survival time of treated/mean survival time of control) × 100” value was determined as 180% and the “long term survivors/no. tested” value is listed as 1/5. Besides, half-maximal inhibition in the series on L1210/0 cells [3] (IC50) was put at 1.6 µM.
On to `NC1CCC(N)CC1.O.O=S(=O)([O-])[O][Pt+]` (stereo not drawn) [Compound 2, Cis-1,4-Diaminocyclohexaneaquasulfatoplatinum(II)], for which 0.05 µM corresponded to half-maximal inhibition in the series with A2780 cells (IC50). For the same compound, in the series on M5076 Tumor Model, the “MTD (Maximum Tolerated Dose)” value is listed as 3.1 mg/kg/injection and the “TGD (Tumor Growth Delay)” value was found to be 12.1. For the same compound, in the series with Murine Leukemia L1210/0, the “MTD (Maximum Tolerated Dose)” value amounted to 1.56 mg/kg/injection, the “% T/C (mean survival time of treated/mean survival time of control) × 100” value is listed as above 571% and the “long term survivors/no. tested” value was 3/5. In addition, in series [2], the “MTD (Maximum Tolerated Dose)” value was found to be 1.56 mg/kg/injection, the “% T/C (mean survival time of treated/mean survival time of control) × 100” value is on record as 140% and the “long term survivors/no. tested” value is recorded as 1/5. It took 0.08 µM to reach half-maximal inhibition with L1210/0 cells [3] (IC50).
The compound `CC(C(=O)[O-])C(=O)[O-].N[C@H]1CC[C@@H](N)CC1.O.[Pt+2]` [Compound 3, Cis-1,4-Diaminocyclohexanemethylmalonatoplatinum(II). H2 O] came in with a 50% inhibitory concentration (IC50) in the series on A2780 cells of 0.13 µM. In the series with M5076 Tumor Model, the “MTD (Maximum Tolerated Dose)” value stood at 200 mg/kg/injection and the “TGD (Tumor Growth Delay)” value is on record as 23.62. In the series on Murine Leukemia L1210/0, the “MTD (Maximum Tolerated Dose)” value was found to be 200 mg/kg/injection, the “% T/C (mean survival time of treated/mean survival time of control) × 100” value was 382% and the “long term survivors/no. tested” value is on record as 1/5. Further, in [2], the “MTD (Maximum Tolerated Dose)” value is on record as 100 mg/kg/injection, the “% T/C (mean survival time of treated/mean survival time of control) × 100” value is 180% and the “long term survivors/no. tested” value is 1/5. This compound also returned an IC50 in the series on L1210/0 cells [3] of 0.28 µM.
As for `NC1CCC(N)CC1.O=C1[O][Pt][O]C(=O)C1O` [Compound 4, Cis-1,4-diaminocyclohexanetartronatoplatinum(II)], the IC50 was found to be 0.11 µM in the series with A2780 cells and 0.5 µM with L1210/0 cells [3]. Also, the “MTD (Maximum Tolerated Dose)” value in the series with M5076 Tumor Model is on record as 50 mg/kg/injection; in the series with Murine Leukemia L1210/0, 25 mg/kg/injection; with Murine Leukemia 1210/DDP (L1210/DDP i.p., BDF1 mice, drug i.p. days 1, 5, 9) it was 50 mg/kg/injection; in [2], 50 mg/kg/injection. Besides, the “TGD (Tumor Growth Delay)” value in the series with M5076 Tumor Model was 30.66. Also, the “% T/C (mean survival time of treated/mean survival time of control) × 100” value in the series on Murine Leukemia L1210/0 came to 406%; with Murine Leukemia 1210/DDP (L1210/DDP i.p., BDF1 mice, drug i.p. days 1, 5, 9, at optimal dose/MTD) it was 187%; in series [2] it was 343%. Also, the figures for the “long term survivors/no. tested” value (in the series with Murine Leukemia L1210/0; in [2]) were 1/5 and 4/5, respectively. Moreover, in [2] (L1210/DACH), the “antitumor activity in vivo against L1210/DACH (in words)” value is “highly active”. This compound also registered a cure rate in series [2] (L1210/DACH, Table 6) of 80%.
For `NC1CCC(N)CC1.O=C1[O][Pt][O]C1=O` (stereo not drawn) [Compound 5, Cis-1,4-diaminocyclohexaneoxalatoplatinum(II)], the IC50 with A2780 cells stood at 0.06 µM; with L1210/0 cells [3], 0.24 µM.
Turning to `N[C@H]1CC[C@@H](N)CC1.O=C([O-])CC(=O)[O-].[Pt+2]` [Compound 6, Cis-1,4-diaminocyclohexanemalonatoplatinum(II)], the IC50 in the series on A2780 cells came to 0.08 µM; in the series with L1210/0 cells [3], 0.34 µM.
The matching figures for `NC1CCC(N)CC1.[OH][Pt]([OH])([Cl])[Cl]` (stereo not drawn) [Compound 8, Cis-1,4-diaminocyclohexanedichlorodihydroxoplatinum(IV)]: 0.14 µM and 0.88 µM.
The like results for `NC1CCC(N)CC1.O=C1[O][Pt]([Cl])([Cl])[O]C(=O)C12CCC2` [Compound 9, Cis-1,4-diaminocyclohexane-1,1-cyclobutanedicarboxylato-dichloroplatinum(IV)] were, in that order, 0.05 µM and 0.14 µM.
The like results for `NC1CCC(N)CC1.O=C1[O][Pt]([Cl])([Cl])[O]C1=O` [Compound 10, Cis-1,4-diaminocyclohexaneoxalatodichloroplatinum(IV)] were, in that order, 0.051 µM and 0.2 µM.
In the case of `CC(=O)[O][Pt]([Cl])([Cl])[O]C(C)=O.NC1CCC(N)CC1` [Compound 11, Cis-1,4-diamtinocyclohexanedichlorodiacetatoplatinum (IV)], the 50% inhibitory concentration (IC50) in the series with A2780 cells was determined as 0.045 µM.
Turning to `CCC(=O)[O][Pt]([Cl])([Cl])[O]C(=O)CC.N[C@@H]1CCCC[C@H]1N` [Compound 16, (R,R-1,2-DACH)PtCl2 trans-(Propionate)2], the 50% inhibitory concentration (IC50) with L1210/DDP cells stood at 0.56 µM; with L1210/DACH cells, 0.55 µM; in the series with L1210/0 cells [4], 0.11 µM.
The like results for `CCCC(=O)[O][Pt]([Cl])([Cl])[O]C(=O)CCC.N[C@@H]1CCCC[C@H]1N` [Compound 17, (R,R-1,2-diaminocyclohexane)PtCl2 trans(butyrate)2] were, in that order, 0.22 µM, 0.17 µM and 0.04 µM.
Take `CCCCC(=O)[O][Pt]([Cl])([Cl])[O]C(=O)CCCC.N[C@@H]1CCCC[C@H]1N` [Compound 18, (R,R-1,2-DACH)PtCl2 trans(pentanoate)2]: the values for the 50% inhibitory concentration (IC50) in the series on L1210/DDP cells, with L1210/DACH cells and with L1210/0 cells [4] were 0.27 µM, 0.24 µM and 0.04 µM, respectively.
The matching figures for `CCCCCC(=O)[O][Pt]1([Cl])([Cl])([O]C(=O)CCCCC)[NH]C2CCCCC2[NH]1` [Compound 19, (R,R-1,2-DACH)PtCl2 trans-(hexanoate)2]: 0.23 µM, 1.5 µM and 0.04 µM.
The like results for `CCCCCCC(=O)[O][Pt]([Cl])([Cl])[O]C(=O)CCCCCC.N[C@@H]1CCCC[C@H]1N` [Compound 20, (R,R-1,2-DACH)PtCl2trans(heptanoate)2] were, in that order, 0.7 µM, 2.3 µM and 0.15 µM.
The matching figures for `CCC(=O)[O][Pt]([Cl])([Cl])[O]C(=O)CC.NC1CCC(N)CC1` [Compound 21, (cis-1,4-DACH)PtCl2 trans-(propionate)2]: 0.5 µM, 0.04 µM and 0.0055 µM.
Take `CCCC(=O)[O][Pt]([Cl])([Cl])[O]C(=O)CCC.NC1CCC(N)CC1` [Compound 22, (cis-1,4-DACH)PtCl2 trans-(butyrate)2]: the IC50 with L1210/DDP cells is 0.13 µM; with L1210/DACH cells, 0.02 µM; with L1210/0 cells [4] it was 0.0012 µM.
